We go through four compounds from US20260167622A1, “PAN-KRAS DEGRADING AGENT, AND PREPARATION METHOD THEREFOR AND USE THEREOF” (LEADINGTAC PHARMACEUTICAL (SHAOXING) CO., LTD., priority 2022, published 2026).

Holding throughout (format): cell-based
The subject of assay [1] is KRAS G12V mutant human lung squamous carcinoma cell SW900. In words: 3D cell proliferation inhibition assay, SW900. The note with it: SW900, 168 h, 3D culture, 7 days, CTG. The text has this: (§1) Test Example 6: 3D Cell Proliferation Inhibition Assay
(§2) The inhibitory effects of the compounds on 3D cell proliferation were investigated on KRAS G12C mutant human non-small cell lung cancer cell NCI-H358, KRAS G12D mutant human lung cancer cell A427, KRAS G12D mutant human gastric cancer cell AGS, KRAS G12D mutant human metastatic pancreatic cancer cell AsPc-1, KRAS G12V mutant human lung squamous carcinoma cell SW900, KRAS G12V mutant human colorectal cancer cell SW620, KRAS G13D mutant human colorectal cancer epithelial cell DLD-1, and KRAS WT human gastric cancer cell MKN1. The specific procedures were as follows:
(§3) 10 μL of each compound solution diluted in a gradient was added to corresponding wells of a 96-well low-adsorption microplate (PerkinElmer), so that the final concentrations of the test compounds in the reaction system were in a range of 10000-0.026 nM. The final concentration of DMSO was 0.2%. Then 90 µL of cells were correspondingly seeded into each well to achieve a cell density of 5×10^2 cells/well (the cell density of SW900 was 5×10^3 cells/well, and the cell density of MKN1 was 1×10^3 cells/well). In addition to test wells for the test compounds, both a DMSO control well and a medium control well were set, with the DMSO control well containing DMSO and cells and the medium well containing only a medium. After the sample loading, the 96-well low-adsorption microplate was incubated in an incubator at 37° C. with […] for 7 days. After 7 days, the microplate was taken out, and 100 μL of CTG reagent (Promega) was added to each well. The plate was incubated at room temperature for 60 m and read on a microplate reader EnVision by the chemiluminescence program. The inhibition rates of the compounds at each concentration were calculated using the formula for the percentage inhibition of cell proliferation: inhibition rate 00=(mean value of DMSO control group−single concentration reading value of compound)/(mean value of DMSO control group−mean value of medium control group)×100. Then non-linear curve fillings for logarithmic concentration-inhibition rate were performed by GraphPad Prism 8, and the IC50 values of the compounds were obtained (Table 6).

In assay [2] the test system is KRAS WT human gastric cancer cell MKN1. Nature of the assay: 3D cell proliferation inhibition assay, MKN1. The note with it: MKN-1, 168 h, 3D culture, 7 days, CTG.
Excerpt: as §1, §2, §3

Assay [3] deals with KRAS G12D mutant human gastric cancer cell AGS. Nature of the assay: 3D cell proliferation inhibition assay, AGS. The note with it: 168 h, 3D culture, 7 days, CTG.
Excerpt: as §1, §2, §3

For assay [4], the target named is T1, KRAS G12V protein in SW900 cells (Homo sapiens, UniProt P01116, G12V).
T1 construct: endogenous in cells; host or cells: SW900
Nature of the assay: KRAS degradation assay (Western Blot) in SW900 cells. The note with it: 24 h. The text has this:
(§4) Test Example 5: KRAS G12C, KRAS G12D, KRAS G12V, KRAS G13D, and KRAS WT (Expanded) Degradation Assays
(§5) The degradation effect of the compounds on KRAS was investigated on KRAS G12C mutant human non-small cell lung cancer cell NCI-H358, KRAS G12D mutant human metastatic pancreatic cancer cell AsPc-1, KRAS G12D mutant human lung cancer cell A427, KRAS G12V mutant human colorectal cancer cell SW620, KRAS G12V mutant human lung cancer cell SW900, KRAS G13D mutant human colorectal cancer epithelial cell DLD-1, and KRAS WT human gastric cancer cell MKN-1. The specific procedures were as follows: 0.95 mL of cells were seeded into each well of a 24-well cell culture plate to achieve a cell density of 5×10^5 cells/well; and the cell plate was incubated in an incubator at 37° C. with 5% CO2 overnight. Then 50 μL of the compound solution after dilution was added to each of the wells with the corresponding cells, so that the final concentration of the compound was in a range of 0.03-3000 nM. The final concentration of DMSO was 0.25%. After the compounds were added, the cell plate was incubated in an incubator at 37° C. with 5% CO2 for 24 h. The culture medium in the 24-well cell culture plate was then removed, and the plate was washed twice with 1×PBS (KeyGEN). 120 μL of RIPA (strong) lysis buffer (Beyotime) (supplemented with 1 mM phenylmethylsulfonyl fluoride, a protease inhibitor mixture (Beyotime), and a protease phosphatase inhibitor mixture (Beyotime)) was added to lyse adherent SW900 cells at the bottom of the cell culture plate. After the plate was left to stand on ice for 30 min, the protein lysate in each well was transferred to a 1.5 mL centrifuge tube and centrifuged at 15000 g for 20 min at 4° C. The cell lysate supernatants after centrifugation were cryopreserved in a refrigerator at −80° C. for later use.
(§6) After the samples of the cell lysate supernatants that had been prepared were thawed from the refrigerator at −80° C., the total protein concentrations of the cell lysates were determined using a BCA protein quantification kit (Tiangen). The total protein concentrations of the samples were then adjusted to 0.5 μg/μL with PBS and 5×SDS-PAGE protein loading buffer (Beyotime), and the samples were incubated in a water bath at 100° C. for 15 min. The samples were then incubated in an ice bath for 5 min and centrifuged at 14000 g for 1 min at 4° C., and the supernatants were mixed well as loading samples for the Western Blot assay. The samples were loaded into wells of a 10% precast gel (KeyGEN) with a loading volume of 10 μL (total protein: 5 μg), a sufficient Tris-MOPS-SDS running buffer (Adamas) was added, and then electrophoresis was performed at a constant voltage of 120 V for 55 min. After the electrophoresis, the proteins on the gel were transferred to PVDF membranes at a constant current of 250 mA for 55 min. After the membrane transfer, the PVDF membranes were incubated in 1× Quick Block blocking buffer (Beyotime)at room temperature for 30 min. After the blocking, the PVDF membranes were separately incubated at 4° C. overnight with the KRAS antibody (Abcam) diluted in a ratio of 1:1000 and the β-actin antibody (Abcam) diluted in a ratio of 1:2000 in 5% BSA as the diluent, and then washed with 1×TBST buffer (2.4 g of Tris, 8.8 g of NaCl, 1.5 mL of Tween 20, with pH adjusted to 7.4, with the volume brought to 1 L) 3 times for 10 min/time. The membranes were incubated with a secondary antibody (Abcam) diluted in 5% BSA at room temperature for 2 h, and then washed with 1×TBST buffer 3 times for 10 min/time. Finally, the membranes were incubated with Clarity Western ECL Substrate (BIO-RAD) for 5 min for luminescence and color development, and a ChemiScope 6200 Touch chemiluminescence imaging system (Clinx) was used for color development and protein mapping. Gray value analysis of the protein maps was performed using the chemiluminescence analysis software (Clinx). […]
Background: Immunoblotting shows a protein as a band on a membrane.

The test system of assay [5] is KRAS G12D mutant human metastatic pancreatic cancer cell AsPc-1. In words: 3D cell proliferation inhibition assay, AsPc-1. The note with it: ASPC1, 168 h, 3D culture, 7 days, CTG. The procedure, abridged: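 Cells seeded in low-adsorption plates at 5×10^2 cells/well (MKN1 1×10^3) with compounds at final 10000–0.026 nM, 0.2% DMSO, 3D culture 7 days at 37 °C. Viability by CellTiter-Glo luminescence; inhibition normalised to DMSO and medium-only controls, IC50 from nonlinear log-concentration fit.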

In assay [6] the test system is KRAS G12D mutant human lung cancer cell A427. Nature of the assay: 3D cell proliferation inhibition assay, A427. The note with it: A-427, 168 h, 3D culture, 7 days, CTG.
Excerpt: as §1, §2, §3

Assay [7] deals with KRAS G12C mutant human non-small cell lung cancer cell NCI-H358. In words: 3D cell proliferation inhibition assay, NCI-H358. The following applies: NCI-H358, 168 h, 3D culture, 7 days, CTG.
Excerpt: as §1, §2, §3

Assay [8] concerns KRAS G13D mutant human colorectal cancer epithelial cell DLD-1. In words: 3D cell proliferation inhibition assay, DLD-1. The note with it: DLD-1, 168 h, 3D culture, 7 days, CTG.
Excerpt: as §1, §2, §3

Assay [9] has as its system KRAS G12V mutant human colorectal cancer cell SW620. In words: 3D cell proliferation inhibition assay, SW620. The following applies: SW-620, 168 h, 3D culture, 7 days, CTG.
Excerpt: as §1, §2, §3

The target in assay [10] is T2, KRAS G12V protein in SW620 cells (Homo sapiens, UniProt P01116, G12V).
T2 construct: endogenous in cells; host or cells: SW620
In words: KRAS degradation assay (Western Blot) in SW620 cells.
Excerpt: as §4, §5, §6

Assay [11] addresses T3, KRAS G13D protein in DLD-1 cells (Homo sapiens, UniProt P01116, G13D).
T3 construct: endogenous in cells; host or cells: DLD-1
Nature of the assay: KRAS degradation assay (Western Blot) in DLD-1 cells. The following applies: 24 h.
Excerpt: as §4, §5, §6

T1 sequence (P01116 1-188 isoform P01116-2 G12V): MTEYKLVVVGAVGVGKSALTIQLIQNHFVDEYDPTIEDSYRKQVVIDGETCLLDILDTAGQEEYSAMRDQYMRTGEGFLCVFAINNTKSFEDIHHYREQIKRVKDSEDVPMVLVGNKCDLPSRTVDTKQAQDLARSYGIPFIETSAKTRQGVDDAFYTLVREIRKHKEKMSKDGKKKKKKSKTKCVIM
T2 sequence (P01116 1-188 isoform P01116-2 G12V): as above
T3 sequence (P01116 1-188 isoform P01116-2 G13D): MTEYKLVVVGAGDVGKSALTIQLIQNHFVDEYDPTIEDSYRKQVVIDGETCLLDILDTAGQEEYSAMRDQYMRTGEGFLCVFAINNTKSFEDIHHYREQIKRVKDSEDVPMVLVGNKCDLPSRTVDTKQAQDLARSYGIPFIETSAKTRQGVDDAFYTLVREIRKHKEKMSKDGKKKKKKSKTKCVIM

The IC50 is the concentration that gives 50% inhibition. For orientation: DC50 means the midpoint of the concentration-degradation curve. A lower DC50 goes with a more potent degrader. The Dmax is the greatest extent of degradation seen. Low values mean shallow degradation, high ones deep degradation. With `C#Cc1c(F)ccc2cc(O)cc(-c3ncc4c(N5CCC[C@@](C)(O)C5)nc(OCC5(CN6CCN(CCCC7CCN(C(=O)c8ccc(Cl)c(N9CCC(=O)NC9=O)c8)CC7)CC6)CC5)nc4c3F)c12` [Example 4, (R)-1-(2-chloro-5-(4-(3-(4-((1-(((7-(8-ethynyl-7-fluoro-3-hydroxynaphthalen-1-yl)-8-fluoro-4-(3-hydroxy-3-methylpiperidin-1-yl)pyrido[4,3-d]pyrimidin-2-yl)oxy)methyl)cyclopropyl)methyl)piperazin-1-yl)propyl)piperidine-1-carbonyl)phenyl)dihydropyrimidine-2,4(1H,3H)-dione], the IC50 in assay [1] was no more than 50 nM; in [2], no more than 50 nM; in assay [3], no more than 50 nM; in [5], 50 to 100 nM; in assay [6], 100 to 500 nM; in assay [7] it was no more than 50 nM. The compound further came in with a 50% degradation concentration (DC50) in assay [4] of no more than 50 nM. This compound also gave a Dmax in assay [4] of 80 to 100%.

Turning to `C#Cc1c(F)ccc2cc(O)cc(-c3ncc4c(N5CCC[C@@](C)(O)C5)nc(OCC5(CN6CCN(CC7CCC8(CC7)CCN(C(=O)c7ccc9c(c7)C(=O)N(C7CCC(=O)NC7=O)C9=O)CC8)CC6)CC5)nc4c3F)c12` (stereo partly drawn) [Example 13, 2-(2,6-dioxopiperidin-3-yl)-5-(9-((4-((1-(((7-(8-ethynyl-7-fluoro-3-hydroxynaphthalen-1-yl)-8-fluoro-4-((R)-3-hydroxy-3-methylpiperidin-1-yl)pyrido[4,3-d]pyrimidin-2-yl)oxy)methyl)cyclopropyl)methyl)piperazin-1-yl)methyl)-3-azaspiro[5.5]undecane-3-carbonyl)isoindoline-1,3-dione], the IC50 in assay [1] was no more than 50 nM; in assay [2] it was 50 to 100 nM; in [3] it was 500 to 1000 nM; in [6], 500 to 1000 nM; in assay [7], 500 to 1000 nM.

Take `CCc1cccc2cc(O)cc(-c3ccc4c(N5CCC[C@@](C)(O)C5)nc(OCC5(CN6CCN(CC7CCC8(CC7)CCN(C(=O)c7ccc(OC)c(N9CCC(=O)NC9=O)c7)CC8)CC6)CC5)nc4c3F)c12` [Example 23, (R)-1-(5-(9-((4-((1-(((7-(8-ethyl-3-hydroxynaphthalen-1-yl)-8-fluoro-4-(3-hydroxy-3-methylpiperidin-1-yl)quinazolin-2-yl)oxy)methyl)cyclopropyl)methyl)piperazin-1-yl)methyl)-3-azaspiro[5.5]undecane-3-carbonyl)-2-methoxyphenyl)dihydropyrimidine-2,4(1H,3H)-dione]: the half-inhibitory concentration (IC50) in assay [8] came to 63.5 nM; in assay [1], 46.8 nM; in assay [2], 5.55 nM; in [3] it was 69.5 nM; in assay [9], 12.3 nM; in assay [5] it was 64.2 nM. Further, 23.6 nM corresponded to half-maximal inhibition in assay [7] (IC50). The 50% degradation concentration (DC50) in [4] was no more than 50 nM. The compound also registered a Dmax in assay [4] of 80 to 100%.

As for `C#Cc1c(F)ccc2cc(O)cc(-c3ncc4c(N5CCC[C@@](C)(O)C5)nc(OC[C@H](C)CN5CCN(CC6CCC7(CC6)CCN(C(=O)c6ccc(CC)c(N8CCC(=O)NC8=O)c6)CC7)CC5)nc4c3F)c12` [Example 133, 1-(2-ethyl-5-(9-((4-((R)-3-((7-(8-ethynyl-7-fluoro-3-hydroxynaphthalen-1-yl)-8-fluoro-4-((R)-3-hydroxy-3-methylpiperidin-1-yl)pyrido[4,3-d]pyrimidin-2-yl)oxy)-2-methylpropyl)piperazin-1-yl)methyl)-3-azaspiro[5.5]undecane-3-carbonyl)phenyl)dihydropyrimidine-2,4(1H,3H)-dione], the results for the DC50 in assay [10] (24 h) and in [11] were 6.73 nM and 7.28 nM, respectively. Besides, the Dmax in [10] (SW-620, 24 h) amounted to 98.9%; in [11], 100%. The 50% inhibitory concentration (IC50) in [8] was found to be 5.68 nM; in assay [2] it was 9.19 nM; in [9], 2.93 nM; in assay [5], 24 nM; in assay [7] it was 5.58 nM.
